# Results taken from patent US8753841B2, “Enzyme that catalyzes a peptide-forming reaction from a carboxy component and an amine component, microbe producing the same, and a method of producing a dipeptide using the enzyme or microbe” (Ajinomoto Co., Inc., priority 2002, dated 2014).
# Key:
# [1] = test system: peptide-forming enzyme from Empedobacter brevis strain FERM BP-8113; experiment: Substrate specificity of enzyme (peptide production from carboxy and amine components); assay type: biochemical; set-up: key to Formed peptide (mM): +: those peptides for which production was confirmed but which were unable to be quantified due to the absence of a standard; a trace amount; details: pH 9.0, 25° C.
# Source text: Ester specificity was examined in the case of using L-amino acid ester for the carboxy component. […] HCl represents hydrochloride in Table 4.
# Peptide production was examined in the case of using L-alanine methyl ester for the carboxy component and using various L-amino acids for the amine component.
# Peptide production was examined in the case of using various types of L-amino acid methyl esters for the carboxy component and using L-glutamine for the amine component. […] Furthermore, Tween-80 was added to the reaction system to a final concentration of 0.1% in the case of using L-Trp-OMe and L-Tyr-OMe.
# [2] = test system: enzyme derived from Sphingobacterium sp. strain FERM BP-8124; experiment: Substrate specificity of enzyme derived from Sphingobacterium sp.; assay type: biochemical; set-up: key to Produced peptide (mM): +: those peptides for which production was confirmed but which were unable to be quantified due to the absence of a standard; a trace amount; details: carboxy component 100 mM, 0.33 units enzyme, pH 9.0, 25° C., 1.5 hours
# Chain of enzyme derived from Sphingobacterium sp. strain FERM BP-8124 (as listed by the source): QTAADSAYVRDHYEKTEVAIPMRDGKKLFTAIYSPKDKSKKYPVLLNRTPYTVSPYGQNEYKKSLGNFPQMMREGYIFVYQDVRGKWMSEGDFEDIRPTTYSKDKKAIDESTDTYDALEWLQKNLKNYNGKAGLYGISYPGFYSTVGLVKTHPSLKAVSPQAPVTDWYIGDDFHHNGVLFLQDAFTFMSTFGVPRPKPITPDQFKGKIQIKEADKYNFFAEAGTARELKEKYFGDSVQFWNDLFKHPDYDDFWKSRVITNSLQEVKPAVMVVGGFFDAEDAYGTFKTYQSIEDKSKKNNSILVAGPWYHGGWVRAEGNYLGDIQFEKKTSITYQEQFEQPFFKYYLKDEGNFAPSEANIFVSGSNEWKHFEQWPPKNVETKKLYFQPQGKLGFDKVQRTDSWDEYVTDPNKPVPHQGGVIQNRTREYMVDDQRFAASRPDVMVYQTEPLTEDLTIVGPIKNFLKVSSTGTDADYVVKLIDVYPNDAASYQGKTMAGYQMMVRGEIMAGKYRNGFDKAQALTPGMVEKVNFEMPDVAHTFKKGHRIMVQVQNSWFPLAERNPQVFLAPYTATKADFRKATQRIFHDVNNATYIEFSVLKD
# [3] = test system: Empedobacter brevis strain FERM BP-8113 microbial cells; experiment: Production of peptide using microbial cells of Empedobacter brevis; assay type: cell-based; details: 1 mL 100 g/L cell suspension + 1 mL buffer with 200 mM carboxy component, 400 mM amino acid, 10 mM EDTA, pH 9.0, 18° C., 2 hours
# Method: A 50 mL medium (pH 6.2) containing 5 grams (g) of glucose, 5 g of ammonium sulfate, 1 g of monopotassium phosphate, 3 g of dipotassium phosphate, 0.5 g of magnesium sulfate, 10 g of yeast extract and 10 g of peptone in 1 liter (L) was transferred to a 500 mL Sakaguchi flask and sterilized at 115° C. for 15 minutes.
# Microbial cells were collected by centrifuging (10,000 rounds per minute (rpm), 15 minutes) the culture broth obtained in Example 1, followed by suspending them to a concentration of 100 g/L in 100 mM borate buffer (pH 9.0) containing 10 mM EDTA. After respectively adding 1 mL of the suspension to 1 mL each of 100 mM borate buffer solutions (pH 9.0) containing 10 mM EDTA, 200 mM of the following carboxy components, and 400 mM of the following amino acids to make a final volume of 2 mL, the reaction was carried out at 18° C. for 2 hours.
# [4] = test system: peptide-forming enzyme from Empedobacter brevis strain FERM BP-8113; experiment: Substrate specificity of enzyme (peptide production from carboxy and amine components); assay type: biochemical; details: pH 9.0, 25° C., 3 hours; for Formed peptide: L-amino acid amide hydrochloride 100 mM as carboxy component, L-amino acid 150 mM
# [5] = test system: peptide-forming enzyme from Empedobacter brevis strain FERM BP-8113; experiment: Enzyme inhibitors: effect on L-alanyl-L-glutamine production by the Mono S fraction enzyme; assay type: biochemical; details: for inhibition of the enzyme by serine enzyme inhibitors (in words): pH 9.0, 25° C.
# [6] = test system: peptide-forming enzyme from Empedobacter brevis strain FERM BP-8113; experiment: Substrate specificity of enzyme (peptide production from carboxy and amine components); assay type: biochemical; set-up: key: +: those peptides for which production was confirmed but which were unable to be quantified due to the absence of a standard; a trace amount; details: 0.1 unit enzyme, 25° C.
# [7] = L-amino acid methyl ester hydrochloride 100 mM, 150 mM L-glutamine, 3 hours
# [8] = Table 15-1, amine component 150 mM
# [9] = L-amino acid methyl ester hydrochloride 100 mM, L-amino acid 150 mM, 3 hours
# [10] = Table 15-3, amine component 150 mM
# [11] = inhibitor at 10 mM, borate buffer pH 9.0, 25° C., 5 minutes, 100 = absence of enzyme inhibitor
# [12] = carboxy component 100 mM, amine component 150 mM, reaction time 3 hr
# [13] = Table 15-4, amine component 150 mM
compound,measurement,setting,value
L-Ser-L-Gln,Formed peptide,[1]; [7],24.0 mM
same,Produced peptide,"[2]; Table 15-2, L-Gln 150 mM",12.9 mM
L-Ala-L-Phe,Formed peptide,[3],62.4 mM
same,Produced peptide,[2]; [8],69.5 mM
L-Val-L-Gln,Formed peptide,[1]; [7],15.4 mM
same,Produced peptide,"[2]; Table 15-2, L-Gln 150 mM",8.2 mM
L-Val-L-Met,Formed peptide,[1]; [9],10.3 mM
same,Formed peptide,[3],10.5 mM
same,Produced peptide,[2]; [10],6.8 mM
Gly-L-Phe,Formed peptide,[1]; [9],44.0 mM
same,Produced peptide,[2]; [10],20.0 mM
same,Produced peptide,"[4]; oligopeptide production, amount of enzyme 0.1 unit",17.3 mM
L-Ala-L-Ser,Formed peptide,[3],51.3 mM
same,Produced peptide,[2]; [8],43.8 mM
Gly-L-Arg,Formed peptide,[1]; [9],25.5 mM
same,Produced peptide,[2]; [10],17.9 mM
L-Val-L-Phe,Formed peptide,[1]; [9],6.1 mM
same,Produced peptide,[2]; [10],1.0 mM
L-Ala-L-Arg,Formed peptide,[3],72.1 mM
same,Produced peptide,[2]; [8],72.2 mM
L-Arg-L-Met,Formed peptide,[1]; [9],0.7 mM
same,Produced peptide (mM),[2]; [10],tr
L-Thr-L-Val,Formed peptide,[1]; [9],0.7 mM
same,Produced peptide,[2]; [10],1.3 mM
L-Ile-L-Ser,Formed peptide,[1]; [9],17.2 mM
same,Produced peptide,[2]; [10],17.3 mM
L-Thr-L-Leu,Formed peptide,[1]; [9],28.4 mM
same,Formed peptide,[3],23.0 mM
same,Produced peptide,[2]; [10],15.3 mM
L-Ser-L-Phe,Formed peptide,[1]; [9],20.3 mM
same,Produced peptide,[2]; [10],4.3 mM
CCN1C(=O)C=CC1=O [N-Ethyl maleimide],Relative activity of L-Ala-L-Gln production (%),[5]; [11],110%
Gly-L-His,Formed peptide,[1]; [9],31.6 mM
same,Formed peptide,[3],22.1 mM
same,Produced peptide,[2]; [10],36.2 mM
L-Pro-L-Gln,Formed peptide,[1]; [7],2.2 mM
same,Produced peptide,"[2]; Table 15-2, L-Gln 150 mM",1.8 mM
H-2-Nal-H-Gln-OH,Produced peptide (mM),"[6]; carboxy component 40 mM, amine component 40 mM, reaction time 3 hr",tr
L-Met-L-Phe,Formed peptide,[1]; [9],34.0 mM
same,Formed peptide,[3],28.5 mM
same,Produced peptide,[2]; [10],8.9 mM
H-Ser(tBu)-Gln-OH,Produced peptide (mM),"[6]; carboxy component 100 mM, amine component 150 mM, reaction time 2 hr",tr
Gly-L-Ser,Formed peptide,[1]; [9],44.2 mM
same,Produced peptide,[2]; [10],53.8 mM
H-t-Leu-H-Gln-OH,Produced peptide (mM),[6]; [12],tr
L-Phe-L-Gln,Formed peptide,[1]; [7],0.9 mM
same,Produced peptide,"[2]; Table 15-2, L-Gln 150 mM",0.8 mM
same,Formed peptide,[4],0.2 mM
H-p-F-Phe-H-Gln-OH,Produced peptide (mM),[6]; [12],tr
L-Thr-L-Ala,Formed peptide,[1]; [9],9.4 mM
same,Produced peptide,[2]; [10],5.8 mM
L-Arg-L-Ser,Formed peptide,[1]; [9],3.6 mM
same,Produced peptide,[2]; [10],2.2 mM
L-Thr-Gly,Formed peptide,[1]; [9],9.4 mM
same,Produced peptide,[2]; [10],0.4 mM
H—N—Me-Ala-Phe-OH,Produced peptide (mM),[6]; [12],tr
"N=C(N)Nc1ccc(C(=O)Oc2ccc([N+](=O)[O-])cc2)cc1 [p-Nitrophenyl-p′-guanidino benzoate, p-nitrophenyl-p′-guanidinobenzoate]",Relative activity of L-Ala-L-Gln production (%),[5]; [11],0.1%
same,inhibition of the enzyme by serine enzyme inhibitors (in words),"[5]; inhibitor at 10 mM, 5 minutes",inhibited
L-Ile-L-Met,Formed peptide,[1]; [9],10.0 mM
same,Formed peptide,[3],8.3 mM
same,Produced peptide,[2]; [10],5.1 mM
Gly-L-Lys,Formed peptide,[1]; [9],9.8 mM
same,Produced peptide,[2]; [10],48.2 mM
c1cnc2c(c1)ccc1cccnc12 [o-Phenanthroline],Relative activity of L-Ala-L-Gln production (%),[5]; [11],96%
L-Thr-L-Met,Formed peptide,[1]; [9],38.6 mM
same,Produced peptide,[2]; [10],28.9 mM
L-Ala-L-Leu,Formed peptide,[3],38.2 mM
same,Produced peptide,[2]; [8],33.0 mM
L-Met-L-Ser,Formed peptide,[1]; [9],12.8 mM
same,Produced peptide,[2]; [10],25.3 mM
L-Met-L-Met,Formed peptide,[1]; [9],25.0 mM
same,Produced peptide,[2]; [10],28.4 mM
L-Ala-L-Met,Formed peptide,[3],68.3 mM
same,Produced peptide,[2]; [8],86.9 mM
same,Produced peptide (mM),[2]; [13],tr
same,Formed peptide,[4],3.4 mM
H—Cl—F-Phe-H-Gln-OH,Produced peptide (mM),"[6]; carboxy component 25 mM, amine component 50 mM, reaction time 3 hr",tr
L-Met-L-Gln,Formed peptide,[1]; [7],12.0 mM
same,Produced peptide,"[2]; Table 15-2, L-Gln 150 mM",32.6 mM
L-Arg-L-Gln,Formed peptide,[1]; [7],7.1 mM
same,Produced peptide,"[2]; Table 15-2, L-Gln 150 mM",17.2 mM
L-Ala-L-His,Formed peptide,[3],52.1 mM
same,Produced peptide,[2]; [8],73.6 mM
same,Produced peptide (mM),[2]; [13],tr
same,Formed peptide,[4],3.9 mM
L-Val-L-Ser,Formed peptide,[1]; [9],30.8 mM
same,Produced peptide,[2]; [10],31.9 mM
L-Ile-L-Phe,Formed peptide,[1]; [9],5.2 mM
same,Produced peptide,[2]; [10],1.5 mM
Gly-L-Gln,Formed peptide,[1]; [7],54.7 mM
same,Produced peptide,"[2]; Table 15-2, L-Gln 150 mM",61.1 mM
"O=C(O)CN(CCN(CC(=O)O)CC(=O)O)CC(=O)O [EDTA, ethylene diamine tetraacetic acid]",Relative activity of L-Ala-L-Gln production (%),[5]; [11],96%
L-Ile-L-Gln,Formed peptide,[1]; [7],8.4 mM
same,Produced peptide,"[2]; Table 15-2, L-Gln 150 mM",6.4 mM
O=C(O)CI [Monoiodoacetate],Relative activity of L-Ala-L-Gln production (%),[5]; pH 9,101%
CC(C)OC(=O)[C@H](C)N.Cl [L-Alanine isopropyl ester•HCl],L-Ala-L-Gln formed,"[1]; carboxy component 100 mM, 200 mM L-glutamine, 2 hours",78.9 mM
L-Gln-L-Gln,Formed peptide,[1]; [7],0.3 mM
same,Produced peptide,"[2]; Table 15-2, L-Gln 150 mM",0.1 mM
L-Ser-L-Met,Formed peptide,[1]; [9],12.5 mM
same,Produced peptide,[2]; [10],7.6 mM
α-L-Asp-L-Gln,Formed peptide (mM),[1]; [7],tr
same,Produced peptide,"[2]; Table 15-2, L-Gln 150 mM",0.05 mM
L-Arg-L-Phe,Formed peptide,[1]; [9],1.9 mM
same,Produced peptide (mM),[2]; [10],tr
L-Tyr-L-Gln,Formed peptide,[1]; [7],3.4 mM
same,Produced peptide,"[2]; Table 15-2, L-Gln 150 mM",0.6 mM
O=S(=O)(F)Cc1ccccc1 [Phenylmethylsulfonyl fluoride],Relative activity of L-Ala-L-Gln production (%),[5]; [11],115%
same,inhibition of the enzyme by serine enzyme inhibitors (in words),"[5]; inhibitor at 10 mM, 5 minutes",not inhibited
L-Thr-L-Gln,Formed peptide,[1]; [7],81.9 mM
same,Produced peptide,"[2]; Table 15-2, L-Gln 150 mM",36.1 mM
same,Formed peptide,[4],0.3 mM
L-Ser-L-Ser,Formed peptide,[1]; [9],38.0 mM
same,Formed peptide,[3],29.0 mM
same,Produced peptide,[2]; [10],9.9 mM
